Literature values in patent US20170009119A1, “DIELECTRIC FLUID AND COOLANT MADE WITH BIOBASED BASE OIL” (Novvi LLC, priority 2014, published 2017).

Tested on: aquatic life
Conditions: European Directive 67/548/EEC

## c1ccc2c(c1)CCCC2 [tetralin, 1,2,3,4-tetrahydronaphthalene]
  toxicity to aquatic life (code R51/53): toxic to aquatic life with long lasting effects
